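1) Cells in 96-well plates. 2) Compound, 48 h, 5 concentrations. 3) Linear interpolation between surrounding doses. 4) Unreached endpoint = highest concentration. GI50: concentration for 50% inhibition of growth. The concentration for full growth arrest is given as TGI.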
Tests used:
Experiment in all cases: growth of human tumour cells (NCI), 48 h
SN12C renal = system: SN12C renal
COLO 205 colon = system: COLO 205 colon
RXF 393 renal = system: RXF 393 renal
SNB-75 CNS = system: SNB-75 CNS
HOP-92 NSCLC = system: HOP-92 NSCLC
MDA-N = system: MDA-N
NCI-H226 lung = system: NCI-H226 lung
HS 578T breast = system: HS 578T breast
UO-31 renal = system: UO-31 renal
786-0 renal = system: 786-0 renal
SF-539 CNS = system: SF-539 CNS

Compound | TGI (SN12C renal) [µM] | TGI (COLO 205 colon) [µM] | TGI (RXF 393 renal) [µM] | TGI (SNB-75 CNS) [µM] | TGI (HOP-92 NSCLC) [µM] | TGI (MDA-N) [µM] | TGI (NCI-H226 lung) [µM] | TGI (HS 578T breast) [µM] | TGI (UO-31 renal) [µM] | TGI (786-0 renal) [µM] | TGI (SF-539 CNS) [µM] | GI50 (SN12C renal) [µM] | GI50 (HOP-92 NSCLC) [µM] | GI50 (NCI-H226 lung) [µM] | GI50 (HS 578T breast) [µM] | GI50 (SF-539 CNS) [µM] | GI50 (UO-31 renal) [µM]
O=C(NCc1ccccc1)c1cc2ccccc2oc1=Nc1cccc(C(F)(F)F)c1 | 62.7 | 90.2 | > 100 | > 100 | > 100 | > 100 | 97.7 | > 100 | > 100 | > 100 | – | – | – | – | – | – | –
CC1=CC2C3(C)C(C)(C(C)=CP3(=O)c3c(C(C)C)cc(C(C)C)cc3C(C)C)C1P2(=O)c1c(C(C)C)cc(C(C)C)cc1C(C)C (configuration not stated) | 7.9 | 3.3 | 15.8 | 12.1 | 7.97 | 5.62 | 6.08 | 6.25 | 4.36 | 5.47 | – | – | – | – | – | – | –
OCc1ccc2c(c1)CC1(C2)Cc2cc3c(cc2C1O)CCC3 (configuration not stated) | 23.8 | 10.3 | 18.4 | 16.8 | 34.1 | – | 28.9 | 11.4 | 24.1 | 45.6 | 14.9 | – | – | – | – | – | –
CN(CCN1CCCC1)C1CCc2cc(Cl)c(Cl)cc2C1 (configuration not stated) | 30.9 | 17.2 | – | – | – | 26.2 | 34.8 | 56.2 | 27.7 | 28.3 | 31.4 | – | – | – | – | – | –
Cc1nc(N)c(N2CCN(C#N)CC2)c(=O)[nH]1 | > 100 | > 100 | – | > 100 | – | > 100 | > 100 | > 100 | > 100 | > 100 | > 100 | – | – | – | – | – | –
CCCCI(O)OS(=O)(=O)c1ccc(C)cc1 | > 100 | > 100 | > 100 | > 100 | > 100 | – | > 100 | > 100 | 55.4 | > 100 | > 100 | – | – | – | – | – | –
c1c[nH]c(-c2cccc3nsnc23)c1 | > 100 | > 100 | > 100 | > 100 | – | > 100 | > 100 | – | > 100 | > 100 | > 100 | – | – | – | – | – | –
Nc1ncnc2c1nnn2C1C=CC(CP(=O)(O)O)C1 (configuration not stated) | > 100 | > 100 | > 100 | – | – | > 100 | > 100 | > 100 | > 100 | > 100 | > 100 | – | – | – | – | – | –
COc1ccc(C2Oc3ccc(Cl)cc3C=C2[N+](=O)[O-])cc1 (configuration not stated) | > 100 | > 100 | > 100 | – | – | > 100 | – | > 100 | > 100 | > 100 | – | – | – | – | – | – | –
Cc1ccc(-c2cc(-c3ccco3)c(C#N)c(=S)[nH]2)cc1 | > 100 | > 100 | > 100 | > 100 | > 100 | – | > 100 | > 100 | > 100 | > 100 | – | – | – | – | – | – | –
COc1ccc(C)cc1N1C(=O)C2ON(Cc3ccc(CC(N)=O)cc3)C(c3c4ccccc4c(Cl)c4ccccc34)C2C1=O (configuration not stated) | 45.7 | – | 33.7 | 38.9 | > 100 | 33 | – | > 100 | 48 | 50.2 | – | – | – | – | – | – | –
COc1ccc2c(c1)c1c(n2CCN2CCCCC2)-c2cccc(OC)c2CC1 | 36.8 | 39 | – | 46.1 | – | 35 | 24.1 | 42.4 | 24.7 | 55.4 | – | – | – | – | – | – | –
C[C@]12CCC3[C@@H](CCC45OC4C(=O)CC[C@]35C)C1Cc1cnn(-c3ccc(F)cc3)c1N2 (some centres not stated) | 48.4 | > 100 | 87.2 | > 100 | – | – | > 100 | – | > 100 | 35.2 | – | – | – | – | – | – | –
O=[N+]([O-])c1cccc(C2=NN(c3ccccc3)C3c4cc(Br)ccc4OCC23)c1 (configuration not stated) | – | > 100 | > 100 | > 100 | > 100 | – | – | – | > 100 | > 100 | > 100 | – | – | – | – | – | –
N#CNC(N)=NCc1ccccc1 | > 100 | > 100 | – | > 100 | > 100 | – | > 100 | – | > 100 | > 100 | > 100 | – | – | – | – | – | –
CC1=NN(C(=O)Cc2ccccc2)C(=O)/C1=C\c1ccc(O)cc1 | > 100 | > 100 | > 100 | – | > 100 | – | > 100 | – | > 100 | > 100 | > 100 | – | – | – | – | – | –
CC1CC(N2CCOCC2)=Nc2ccccc2N1C (configuration not stated) | > 100 | > 100 | > 100 | 89.7 | – | > 100 | > 100 | > 100 | > 100 | > 100 | > 100 | – | – | – | – | – | –
CCCCCCCC(=O)OCC(COC(=O)C(C)(C)C)OC(=O)Cc1ccccc1 (configuration not stated) | > 100 | > 100 | – | – | > 100 | – | > 100 | – | > 100 | > 100 | – | – | – | – | – | – | –
O=C(COc1ccc(OCC(=O)N/N=C/c2ccc(-c3ccc(Cl)cc3Cl)o2)c(Cl)c1)N/N=C/c1ccc(-c2ccc(Cl)cc2Cl)o1 | > 100 | > 100 | 81.2 | – | – | > 100 | > 100 | > 100 | > 100 | > 100 | – | – | – | – | – | – | –
COc1cc(C)c(CC/C(C)=C/Cc2cc(O)ccc2O)c(C)c1C | > 25 | > 25 | > 25 | > 25 | > 25 | – | > 25 | – | > 25 | > 25 | > 25 | – | – | – | – | – | –
Cn1c2ccccc2n2c3ncccc3c(=O)c(C#N)c12 | > 100 | – | > 56.4 | > 79.9 | > 100 | – | 4.65 | > 94.1 | 43.1 | > 81 | – | – | – | – | – | – | –
CN(C)C(=O)C(F)(F)C(c1ccc(F)cc1)C1C(=O)N(C)C(=O)N(C)C1=O (configuration not stated) | – | > 100 | > 100 | > 100 | > 100 | – | > 100 | – | > 100 | > 100 | – | – | – | – | – | – | –
CCCCCCCCCCCCCCCCCCOc1ccccc1CC(=O)NCC[N+]1(C)CCOCC1 | 6.21 | – | – | – | 3.78 | – | 89 | 9.56 | 37.2 | – | 12.8 | 2.26 | 1.03 | 4.9 | 2.38 | 3.35 | 5.83
O=c1oc2ccc3ccccc3c2cc1-c1cn2ccsc2n1 | 83.8 | 33.3 | 37.4 | > 100 | 30 | 46.3 | – | > 100 | 31.7 | 32.7 | 51.2 | – | – | – | – | – | –

— PubChem BioAssay (NCI)
